Measurements reported in patent US5512566A, “Tricyclic compounds having affinity for the 5-HT1A receptor” (priority 1993, dated 1996).
Where a name gives a salt, the structure may show the parent alone. Read-outs that look alike come from different tables or passages of the source.

Columns and labels:
dopamine D2 = target: T1, dopamine D2 (Rattus norvegicus, UniProt P61169); assay: Receptor Binding Assay, dopamine D2 (3H-spiperone, P2 fraction from striatum); design: species or system male, Wistar rats
T1 construct: P2 fraction (synaptosomal membranes) prepared from male, Wistar rats; from tissue; host or cells: rat (Wistar, male) striatum, P2 synaptosomal membranes
Method: The dopamine D2 and serotonin 5-HT1A binding activity of compounds was determined using a P2 fraction (synaptosomal membranes) prepared from male, Wistar rats. The D2 assay employed a P2 fraction from the striatum, the ligand ^3 H-spiperone at a concentration of 0.05 nM, and […] haloperidol as a blank determinant. […].
(§1) The data from each assay were analyzed by calculating the percent inhibition of the binding of the tritiated ligands by given concentrations of the test compound. KI values, where given, were obtained from the logit analysis of concentration-inhibition curves.

serotonin 5-HT1A = target: T2, serotonin 5-HT1A (Rattus norvegicus, UniProt P19327); assay: Receptor Binding Assay, serotonin 5-HT1A (3H-8-hydroxy-DPAT, P2 fraction from cerebral cortex); design: species or system male, Wistar rats; conditions: known drugs, 3H-8-hydroxy-DPAT 3 nM, pH 7.5, 20 min, 25° C., read-out: KI values for some known drugs, 5-HT1A assay
T2 construct: P2 fraction (synaptosomal membranes) prepared from male, Wistar rats; from tissue; host or cells: rat (Wistar, male) cerebral cortex, P2 synaptosomal membranes
T2 sequence (P19327 1-422): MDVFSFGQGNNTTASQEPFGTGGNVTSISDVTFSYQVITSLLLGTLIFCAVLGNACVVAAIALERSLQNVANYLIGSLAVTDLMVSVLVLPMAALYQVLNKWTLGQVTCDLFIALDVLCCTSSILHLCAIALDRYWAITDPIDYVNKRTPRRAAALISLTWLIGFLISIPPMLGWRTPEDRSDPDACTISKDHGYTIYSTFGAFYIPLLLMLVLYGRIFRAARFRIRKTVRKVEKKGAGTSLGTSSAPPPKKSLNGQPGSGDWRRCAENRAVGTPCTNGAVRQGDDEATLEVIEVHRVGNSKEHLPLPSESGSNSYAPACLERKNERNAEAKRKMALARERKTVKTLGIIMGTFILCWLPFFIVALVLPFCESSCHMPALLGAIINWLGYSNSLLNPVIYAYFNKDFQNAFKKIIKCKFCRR
Method: The dopamine D2 and serotonin 5-HT1A binding activity of compounds was determined using a P2 fraction (synaptosomal membranes) prepared from male, Wistar rats.
as §1

[1] = 3H-spiperone 0.05 nM, rat striatum P2 fraction, pH 7.5, 45 min, 37° C., read-out: Receptor Binding, Ki, D-2

T1 sequence (P61169 whole entry): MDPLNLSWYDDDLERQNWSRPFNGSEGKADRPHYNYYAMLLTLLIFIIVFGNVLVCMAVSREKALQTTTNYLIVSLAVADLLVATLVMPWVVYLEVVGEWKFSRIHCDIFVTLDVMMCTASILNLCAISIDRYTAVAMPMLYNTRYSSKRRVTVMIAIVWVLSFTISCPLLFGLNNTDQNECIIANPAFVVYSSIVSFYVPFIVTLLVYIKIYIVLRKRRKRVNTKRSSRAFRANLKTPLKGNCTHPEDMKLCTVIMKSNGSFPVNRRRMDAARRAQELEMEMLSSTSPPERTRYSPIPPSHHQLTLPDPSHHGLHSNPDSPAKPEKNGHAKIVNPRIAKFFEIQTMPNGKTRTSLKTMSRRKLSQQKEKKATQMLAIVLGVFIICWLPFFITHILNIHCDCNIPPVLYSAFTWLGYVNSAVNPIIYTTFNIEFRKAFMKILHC

Row | SMILES | Ki (dopamine D2; [1]) [µM] | Ki (dopamine D2) [µM] | also measured
1 | O=C(c1cccc(CN2CCc3c([nH]c4ccccc34)C2)c1)N1CCCCC1 [Compound 9, 1-(3-(2-(1,2,3,4-Tetrahydro-9H-pyrido(3,4-b)indolyl)methyl)-benzoyl)piperidine Monooxalate 0.3 Hydrate] |  | 0.374 | 
2 | O=C(c1cccc(CN2CCc3c([nH]c4ccccc34)C2)c1)N1CCc2ccccc21 [Compound 11, 1-(3-(2-(1,2,3,4-Tetrahydro-9H-pyrido(3.4-b)indolyl)methyl)benzoyl)indoline Monofumarate] |  | > 1 | 
3 | O=C(c1cccc(CN2CCN3c4ccccc4OCC3C2)c1)N1CCCCC1 (centres unmarked) [Compound 13, 1-(3-(1-(1,2,3,4,4a,5-hexahydropyrazino(1.2-c)-1,4-benzoxazinyl)methyl)benzoyl)pipridine Sesquioxalate] | > 1 |  | 
4 | O=C(c1cccc(CN2CCN3c4ccccc4OCC3C2)c1)N1CCc2ccccc21 (centres unmarked) [Compound 14, 1-(3-(3-(1,2,3,4,4a,5-Hexahydropyrazino(1,2-c)-1,4-benzoxazinyl)methyl)benzoyl)iondoline 1.2 Oxalate] | > 1 |  | 
5 | Cc1ccc(N(CC2=NCCN2)c2cccc(O)c2)cc1 [phentolamine] |  |  | Ki (serotonin 5-HT1A): 0.059 µM
